According to US5753673A, “Quinolinecarboxylic acid derivatives” (Taisho Pharmaceutical Co., Ltd., priority 1994, dated 1998):
Where a name gives a salt, the structure may show the parent alone. Read-outs that look alike come from different tables or passages of the source.

Legend:
5-HT1A receptor = molecular target: T1, 5-HT1A receptor (Rattus norvegicus, UniProt P19327); assay: Selectivity for receptors: 5-HT1A receptor, inhibition of [^3 H] 8-OH-DPAT binding to rat cerebral cortex membrane
T1 construct: The rat cerebral cortex was homogenized in 50 mM Tris hydrochloride buffer; from tissue; host or cells: rat cerebral cortex membranes
T1 sequence (P19327 1-422): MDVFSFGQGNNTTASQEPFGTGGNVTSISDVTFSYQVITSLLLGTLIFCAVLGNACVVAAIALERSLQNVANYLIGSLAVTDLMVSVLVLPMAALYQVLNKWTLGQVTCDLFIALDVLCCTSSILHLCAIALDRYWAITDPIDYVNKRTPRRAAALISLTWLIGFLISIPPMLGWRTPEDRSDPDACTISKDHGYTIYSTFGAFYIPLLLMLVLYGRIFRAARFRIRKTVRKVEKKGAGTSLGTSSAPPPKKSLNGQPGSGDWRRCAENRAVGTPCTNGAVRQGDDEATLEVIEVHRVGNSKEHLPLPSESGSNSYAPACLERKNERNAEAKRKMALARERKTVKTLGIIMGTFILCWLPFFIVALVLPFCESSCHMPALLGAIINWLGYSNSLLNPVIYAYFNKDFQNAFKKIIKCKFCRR
Experimental: (§1) The selectivity for receptors of the quinolinecarboxylic acid derivatives of the present invention was examined by the following method.
The affinity to serotonin 1A (5-HT1A) receptor was examined by the method described in […], J. R. et al., Biochem. Pharmacol., 12, 1943-1949 (1986).
The affinity to serotonin 1A (5-HT1A) was examined in terms of inhibition of [^3 H] 8-OH-DPAT (Daiichi Kagaku Yakuhin Co.) binding to rat cerebral cortex membrane. The rat cerebral cortex was homogenized in 50 mM Tris hydrochloride buffer (pH 7.4) followed by centrifugation at 48,000 G.
The pellet was washed once with Tris hydrochloride buffer. Then the pellet was suspended in 50 mM Tris hydrochloride buffer (supplemented with 0.01 mM pargyline and 0.1% ascorbic acid, pH 7.7) and provided for use as the membrane preparation. The membrane specimen was reacted with 1 nM [^3 H] 8-OH-DPAT at 37° C. for 15 minutes. After the reaction, the membrane was caught by a harvester. Non-specific binding was defined as that taken in the presence of 10 μM 5-HT.

[1] = system: gastrointestinal motor function; details: TALLEY, N. J., 1992; cited from earlier work
Dopamine D2 receptor = molecular target: T2, Dopamine D2 receptor (Rattus norvegicus, UniProt P61169); assay: Selectivity for receptors: dopamine D2 receptor, inhibition of [^3 H] raclopride binding to rat striatal membrane; details: [^3 H] raclopride 1 nM, symbol, no activity in 10 μM, read-out: Dopamine D2 receptor antagonizing action (IC50)
T2 construct: The rat striatum was homogenized in 50 mM Tris hydrochloride buffer; from tissue; host or cells: rat striatal membranes
T2 sequence (P61169 whole entry): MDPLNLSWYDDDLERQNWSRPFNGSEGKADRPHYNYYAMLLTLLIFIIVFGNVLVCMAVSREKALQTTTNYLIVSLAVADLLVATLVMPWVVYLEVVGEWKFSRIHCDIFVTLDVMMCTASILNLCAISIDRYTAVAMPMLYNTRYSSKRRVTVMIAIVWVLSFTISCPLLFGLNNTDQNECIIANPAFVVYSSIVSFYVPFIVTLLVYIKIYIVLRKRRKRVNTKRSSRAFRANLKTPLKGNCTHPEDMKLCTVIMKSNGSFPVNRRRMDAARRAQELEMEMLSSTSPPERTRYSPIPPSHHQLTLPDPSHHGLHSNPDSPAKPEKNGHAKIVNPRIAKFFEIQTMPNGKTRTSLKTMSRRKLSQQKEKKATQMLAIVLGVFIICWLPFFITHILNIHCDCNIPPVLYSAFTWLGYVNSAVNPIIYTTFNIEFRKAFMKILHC
Experimental: as §1
The affinity to dopamine 2 (D2) receptor was examined according to the method described in MALMBERG, A. et al., Mol Pharmacol., 43, 749-754 (1993).
The affinity for D2 receptor was studied in terms of the inhibition of [^3 H] raclopride (Daiichi Kagaku Yakuhin Co.) binding to rat striatal membrane. The rat striatum was homogenized in 50 mM Tris hydrochloride buffer (pH 7.4) followed by centrifugation at 48,000 G. The pellet was washed once with Tris hydrochloride buffer. Then the pellet was suspended in 50 mM Tris hydrochloride buffer (containing 120 mM NaCl, 5 mM KCl, 2 mM CaCl2, 1 mM MgCl2, pH 7.4) and provided for use as the membrane preparation. The membrane preparation (0.5 mg protein/ml) was reacted with 1 nM [3H] raclopride at 25° C. for 60 minutes. After the reaction, the membrane was caught by a harvester. Non-specific binding was defined as that taken in the presence of 10 μM haloperidol.

[2] = molecular target: T3, serotonin 4 receptor (5-HT4) (Cavia porcellus, UniProt O70528); assay: Stimulating activity on serotonin 4 receptor (twitch response in guinea pig ileum); format: cell-based
T3 construct: from tissue; host or cells: longitudinal muscle strips of guinea pig ileum (Harley guinea pigs)
T3 sequence (O70528 whole entry): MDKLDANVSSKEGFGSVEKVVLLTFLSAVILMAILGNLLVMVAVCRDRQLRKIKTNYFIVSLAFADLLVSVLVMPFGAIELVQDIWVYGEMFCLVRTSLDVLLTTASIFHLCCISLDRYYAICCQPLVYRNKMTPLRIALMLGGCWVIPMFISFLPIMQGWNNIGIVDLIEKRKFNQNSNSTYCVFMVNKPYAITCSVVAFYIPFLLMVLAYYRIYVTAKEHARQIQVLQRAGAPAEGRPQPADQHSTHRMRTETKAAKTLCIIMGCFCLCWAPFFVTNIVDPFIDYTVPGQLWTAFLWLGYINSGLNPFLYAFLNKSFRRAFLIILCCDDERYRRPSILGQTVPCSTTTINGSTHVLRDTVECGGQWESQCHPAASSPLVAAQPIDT
Experimental: Stimulating activity on serotonin 4 receptor
From Harley guinea pigs weighing 250 to 400 g, a section of ileum 10 to 20 cm proximal to the ileocecal junction was removed. Longitudinal muscle strips obtained from the ileum were used for this assay. The preparations were suspended in Krebs' solution at 32 to 34° C., bubbled continuously with 95% O2 and 5% CO2, and subjected to initial tension of about 0.8 g. Responses were recorded isometrically. Twitch responses were evoked by electrical stimulation (0.2 Hz, 1 msec pulse duration). The preparations were stimulated at supramaximal voltage for 2 to 3 hours, and were then allowed to equilibrate for about 1 hour at submaximal voltage. […] The preparations were left for at least 45 minutes before cumulative addition of each agonist.
The quinolinecarboxylic acid derivatives of the present invention were employed as sample compounds. For comparison, the following compounds were employed. These compounds were diluted by dissolving them in distilled water or in DMSO.
The data obtained was analyzed by RS1 (BBN Software Product Co.).

5-HT4 receptor = molecular target: T4, 5-HT4 receptor (Cavia porcellus, UniProt O70528); assay: Inhibition of 5-HT4 receptor-binding ([^3 H]GR113808 binding in guinea pig ileum)
T4 construct: The longitudinal muscle strip from guinea pig was homogenized; from tissue; host or cells: membranes of guinea pig ileum longitudinal muscle strip
T4 sequence (O70528 whole entry): as above
Experimental: Effect on inhibition of 5-HT4 receptor-binding
The effect on inhibition of 5-HT4 receptor-binding of the quinolinecarboxylic acid derivatives of the present invention was examined according to the method described in GROSSMAN et al., Br. J. Pharmacol., 109, 618 (1993).
The longitudinal muscle strip from guinea pig was homogenized in 0.32M sucrose with a Teflon-glass homogenizer. After centrifugation at 900 G for 10 minutes, the upper fraction of lipids and precipitates was discarded and the supernatant was centrifuged at 100,000 G (48,000 rpm) for an hour. The pellet was resuspended in 50 mM HEPES buffer. After incubation at 37° C. for 30 minutes, the suspension was centrifuged at 48,000 rpm for 20 minutes. The pellet was suspended in HEPES buffer supplemented with 10^-6 M pargyline and 0.1% ascorbic acid. The suspension was used for the binding assay.
Non-specific binding was defined as that taken in the presence of 3×10^-5 M 5-HT. B/F separation was performed through GF/B filter treated with 0.1% polyethyleneimine, using a cell harvester. Washing was performed once.

5-HT3 receptor = molecular target: T5, 5-HT3 receptor (Rattus norvegicus, UniProt P35563); assay: Selectivity for receptors: 5-HT3 receptor, inhibition of [^3 H]GR65630 binding to rat cerebral cortex membrane; details: [^3 H]GR65630 0.2 nM, read-out: 5-HT3 receptor antagonizing action (IC50)
T5 construct: The rat cerebral cortex was homogenized in 50 mM Tris hydrochloride buffer; from tissue; host or cells: rat cerebral cortex membranes
T5 sequence (P35563 24-483): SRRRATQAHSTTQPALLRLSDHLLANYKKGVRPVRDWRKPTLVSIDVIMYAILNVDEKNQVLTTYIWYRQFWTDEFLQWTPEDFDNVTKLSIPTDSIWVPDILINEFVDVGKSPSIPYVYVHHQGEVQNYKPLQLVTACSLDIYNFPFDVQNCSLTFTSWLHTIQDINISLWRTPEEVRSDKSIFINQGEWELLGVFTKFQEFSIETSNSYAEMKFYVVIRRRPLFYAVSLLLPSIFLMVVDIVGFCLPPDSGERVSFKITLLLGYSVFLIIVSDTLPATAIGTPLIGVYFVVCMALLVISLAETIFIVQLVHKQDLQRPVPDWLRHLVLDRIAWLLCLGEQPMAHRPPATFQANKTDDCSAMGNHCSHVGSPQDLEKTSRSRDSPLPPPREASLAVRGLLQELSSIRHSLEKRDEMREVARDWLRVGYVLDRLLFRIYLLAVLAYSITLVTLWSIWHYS
Experimental: as §1
The affinity for serotonin 3 receptor was examined by the method described in […], G. J. et al., Nature (London), 330, 746-748 (1987).
The affinity to serotonin 3 (5-HT3) was examined in terms of inhibition of [^3 H]GR65630 binding (Daiichi Kagaku Yakuhin Co.) binding to rat cerebral cortex membrane. The rat cerebral cortex was homogenized in 50 mM Tris hydrochloride buffer (pH 7.4) followed by centrifugation at 48,000 G. The precipitates were washed once with Tris hydrochloride buffer. Then the precipitates were suspended in 50 mM Tris hydrochloride buffer and provided for use as the membrane preparation. The membrane preparation was reacted with 0.2 nM [^3 H]GR65630 at 37° C. for 30 minutes. After the reaction, the membrane was caught by a harvester. Non-specific binding was defined as the binding taken in the presence of 1 μM zacopride.

[3] = [^3 H] 8-OH-DPAT 1 nM, rat cerebral cortex membrane, symbol, no activity in 10 μM, read-out: 5-HT1A receptor antagonizing action (IC50)

Row | Structure (SMILES) | IC50 (5-HT1A receptor) [nM] | effect on gastrointestinal motor function and conditions [1] | IC50 (5-HT1A receptor; [3]) [nM] | IC50 (Dopamine D2 receptor) [nM] | EC50 [2] [nM] | IC50 (5-HT4 receptor) [nM] | IC50 (5-HT3 receptor) [nM]
1 | COc1cc(N)c(Cl)cc1C(=O)N[C@@H]1CCN(CCCOc2ccc(F)cc2)C[C@@H]1OC (relative stereo) [Comparative Compound 1, Cisapride, reference compound] | 64.7 | accelerate the gastrointestinal motor function and improve the gastrointestinal conditions |  |  |  |  | 
2 | CC(C)n1c(=O)c(C(=O)NC2CC3CCC(C2)N3CCCO)cc2ccccc21 (stereo not drawn) [Compound 5, Endo-N-(8-(3-hydroxypropyl)-8-azabicyclo[3.2.1]oct-3-yl)-1-isopropyl-2-oxo-1,2-dihydro-3-quinolinecarboxamide] |  |  | > 10000 | > 10000 | 32 | 42.2 ± 6.29 | 977
3 | COCCN1[C@@H]2CC[C@H]1C[C@@H](NC(=O)c1cc3ccccc3n(C(C)C)c1=O)C2 [Compound 10, endo-N-(8-(2-methoxyethyl)-8-azabicyclo[3.2.1]oct-3-yl)-1-isopropyl-2-oxo-1,2-dihydro-3-quinolinecarboxamide hydrochloride] |  |  | > 10000 | > 10000 | 15 | 78.5 ± 14.6 | 811
4 | CCOCCN1C2CCC1CC(NC(=O)c1cc3ccccc3n(C(C)C)c1=O)C2 (stereo not drawn) [Compound 11, Endo-N-(8-(2-ethoxyethyl)-8-azabicyclo[3.2.1]oct-3-yl)-1-isopropyl-2-oxo-1,2-dihydro-3-quinolinecarboxamide] |  |  | > 10000 | > 10000 | 18.7 | 68.7 ± 7.32 | 423
5 | CC(C)n1c(=O)c(C(=O)N[C@H]2C[C@H]3CC[C@@H](C2)N3CCN2CCOCC2)cc2ccccc21 [Compound 20, endo-N-(8-(2-morpholinoethyl)-8-azabicyclo[3.2.1]oct-3-yl)-1-isopropyl-2-oxo-1,2-dihydro-3-quinolinecarboxamide] |  |  | > 10000 | > 10000 | 25.5 | 78.1 ± 14.5 | 509
6 | COc1cc(N)c(Cl)cc1C(=O)NC1CCN2CCCC1C2 (centres unmarked) [renzapride] |  | accelerate the gastrointestinal motor function and improve the gastrointestinal conditions |  |  |  |  | 
